Data: US20090028804A1, “AhR mediators” (SYMRISE GmbH & Co. KG, priority 2005, published 2009)
Read-outs that look alike come from different tables or passages of the source. One block for each compound: values may come before it.

Tests used:
[1] = system: primary mouse melanocytes; test: Melanin content of primary mouse melanocytes, photometric at 405 nm; type: cell-based
Description: The cells were removed, lysed with 0.1% Triton-X100, centrifuged and the melanin content from the lysate pellet was determined photometrically in an ELISA reader at 405 nm after cell disruption with 1M NH4OH (4 h, 85° C.). The blank reading, which contained only NH4OH, was subtracted from the absorption value. In parallel, the protein content of the lysate supernatants was determined by the Bradford method.
Semiconfluent primary mouse melanocytes (culture conditions as above) were further cultured for 7 days with 10 μM MNF. The cells were removed, lysed with 0.1% Triton-X100, centrifuged and the melanin content from the lysate pellet was determined photometrically in an ELISA reader at 405 nm after cell disruption with 1M NH4OH (4 h, 85° C.). The blank reading, which contained only NH4OH, was subtracted from the absorption value.

AhR [2] = target: T1, AhR (Homo sapiens, UniProt P35869); test: AhR translocation in primary mouse melanocytes transfected with pEGFP-AhR plasmid; type: cell-based; design: expressed in transfected cells; host or cells: primary mouse melanocytes; settings: in the presence and absence of benzo[a]pyrene
T1 sequence (P35869 11-848): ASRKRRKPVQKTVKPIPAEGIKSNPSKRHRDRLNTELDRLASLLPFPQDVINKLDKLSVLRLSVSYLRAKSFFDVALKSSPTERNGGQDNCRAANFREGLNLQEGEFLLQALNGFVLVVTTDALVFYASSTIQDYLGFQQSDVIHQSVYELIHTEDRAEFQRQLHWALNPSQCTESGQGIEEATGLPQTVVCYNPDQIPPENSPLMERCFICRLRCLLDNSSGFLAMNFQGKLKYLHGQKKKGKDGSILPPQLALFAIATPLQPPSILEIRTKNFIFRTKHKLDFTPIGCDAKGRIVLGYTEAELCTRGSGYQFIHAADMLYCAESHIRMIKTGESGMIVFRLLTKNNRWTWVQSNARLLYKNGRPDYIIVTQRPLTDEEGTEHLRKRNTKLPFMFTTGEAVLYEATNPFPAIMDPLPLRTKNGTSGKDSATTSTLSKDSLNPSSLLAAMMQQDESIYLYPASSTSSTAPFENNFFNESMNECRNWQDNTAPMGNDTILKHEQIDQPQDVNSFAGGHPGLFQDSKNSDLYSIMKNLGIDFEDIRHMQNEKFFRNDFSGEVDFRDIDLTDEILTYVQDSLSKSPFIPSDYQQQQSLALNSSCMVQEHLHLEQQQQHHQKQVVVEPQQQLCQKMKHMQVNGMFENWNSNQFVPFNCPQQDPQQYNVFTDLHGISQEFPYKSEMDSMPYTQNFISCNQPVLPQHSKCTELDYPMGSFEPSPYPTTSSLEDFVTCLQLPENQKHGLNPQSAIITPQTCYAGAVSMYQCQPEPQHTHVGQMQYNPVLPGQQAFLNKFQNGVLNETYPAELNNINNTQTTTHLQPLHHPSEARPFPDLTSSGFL
Description: Primary mouse melanocyte cells were plated out onto chambered microscope slides. Individual chambers were treated for 1 h with the test substances. After 24 h, the cells were transfected with the pEGFP-AhR plasmid. After a further 40 min, the cells were fixed. The microscope slides were evaluated by fluorescence microscopy. Translocation of the AhR, which is coupled to the GFP and thus fluoresces green, from the cytoplasm into the cell nucleus is visible.

AhR [3] = target: T1, AhR; test: AhR translocation into the cell nucleus in HaCaT cells transfected with pEGFP-AhR plasmid; type: cell-based; design: host or cells: oral human keratinocyte cancer cells
Description: (§1) HaCaT keratinocytes were cultured in DMEM medium with 10% fetal calf serum. The cells were irradiated with UVB radiation in PBS (phosphate-buffered saline). For UVB irradiation, we used a TL20W/12RS lamp which contains four parallel tubes (Philips, Eindhoven, Netherlands) and emits the majority of its energy in the UVB range (290-320 nm). The emission peak of the lamp is at 310 nm. Control cells were subjected to identical treatment, but were not irradiated. In order to inhibit the AhR, the cells were treated with the test substance 1 h before irradiation.
HaCaT cells were plated out onto chambered microscope slides with a cell density of 5×10^4 cells/chamber. Some were pretreated with the test substance for 1 h. After 24 h, said cells were transfected with the pEGFP-AhR plasmid by means of the FuGene 6 transfection reagent (Roche, Mannheim, Germany) in accordance with the manufacturer's instructions After a further 24 h, transfected cells were irradiated with […] of UVB. After 40 min, the cells were fixed for 10 min with 4% paraformaldehyde and washed with PBS. The microscope slides were dried and mounted with Vectashield Mounting Medium (Vector Laboratories, Burlingame, Calif., USA). The AhR coupled to the GFP was visualized by means of a fluorescence microscope (Olympus, Hamburg, Germany) and photographed with a ColorViewXS digital camera (Olympus).

AhR [4] = target: T1, AhR; design: host or cells: oral human keratinocyte cancer cells; settings: cited from earlier work
MMP-1 = settings: cited from earlier work
[5] = Photostability on irradiation with UVB radiation; type: physicochemical; settings: photostable = no more than 10 mol % converted on UVB (40 W/m^2) for 2 hours
Description: For the purposes of the present invention, a photostable substance is one which, on irradiation with UVB radiation (40 W/m^2) for 2 hours, is no more than 10 mol % converted into one or more other substances. All-trans-retinoic acid, for example, is accordingly not a preferred AhR antagonist, as this substance is photolabile.

CYP1A1 = test: UVB-induced CYP1A1 induction in HaCaT keratinocytes, real time RT-PCR; type: cell-based, human
Description: as §1
HaCaT cells were irradiated with 100 J/m^2 of UVB. Some cells were pretreated with the test substance 1 h before irradiation. After 4 h, the RNA was prepared using the RNeasy kit (Qiagen, Hilden, Germany) in accordance with the manufacturer's instructions. Reverse transcription was carried out as described (Arch. Toxicol (2005) PMID 16205913). PCR fragments were amplified by means of real-time PCR in a LightCycler (Roche, Mannheim, Germany). The PCR mix was made up of 1/10 volume of QuantiTec® SYBR Green PCR Master Mixes F (Qiagen, Hilden, Germany), 0.5 μM of the particular primer, 2 μl of cDNA and DEPC-treated (diethyl pyrocarbonate-treated) H2O in a final volume of 20 μl. […] PCR conditions were as follows: 40 cycles of 15 sec 94° C. for denaturation, 25 sec 60° C. for primer attachment, 30 sec 72° C. for extension and 2 sec 72° C. for fluorescence measurement. […] The PCR products were quantified by means of a fragment-specific standard curve and analysis with LightCycler Software 3. […]
HaCaT cells were irradiated with 100 J/m^2 of UVB. […] The PCR mix was made up of 1/10 volume of QuantiTect® SYBR Green PCR Master Mixes (Qiagen, Hilden, Germany), 0.5 μM of the particular primer, 2 μl of cDNA and DEPC-treated (diethyl pyrocarbonate-treated) H2O in a final volume of 20 μl. […] PCR conditions were as follows: 40 cycles of 15 sec 94° C. for denaturation, 25 sec 60° C. for primer attachment, 30 sec 72° C. for extension and 2 sec 72° C. for fluorescence measurement. […]

AhR [6] = target: T1, AhR; settings: human breast epithelium cells; cited from earlier work
AhR [7] = target: T1, AhR; settings: human liver cancer cell line HepG2; cited from earlier work
AhR [8] = target: T1, AhR; settings: human breast cancer cell line MCF-7; cited from earlier work
[9] = in the absence of UVB radiation

AhR translocation into the cell nucleus (AhR [2]): inhibited AhR translocation | AhR translocation into the cell nucleus (AhR [3]; HaCaT, in the presence and absence of UVB light): inhibited AhR translocation
Structure (SMILES): COc1cc(-c2cc(=O)c3ccccc3o2)ccc1[N+](=O)[O-] [3-methoxy-4-nitroflavone]
melanin content versus untreated cells ([1]; 10 μM, 7 days, p<0.05 (FIG. 4)): significantly less melanin

photostability [5]: photolabile
Structure (SMILES): CC1=C(/C=C/C(C)=C/C=C/C(C)=C/C(=O)O)C(C)(C)CCC1 [All-trans-retinoic acid]
AhR activity (AhR [4]; in the absence of TCDD): without influencing AhR activity | TCDD-induced AhR activation (AhR [4]; normal human keratinocytes): inhibits TCDD-induced AhR activation | TCDD-induced expression of MMP-1 (MMP-1): enhancing TCDD-induced expression of MMP-1

CYP1A1 inhibition in the presence of UVB light (CYP1A1; 0.0001 wt. %, HaCaT, 100 J/m^2 UVB, relative to control (PBS without test substances with 0.1% DMSO, UVB-irradiated)): 20% | induction of CYP1A1 as a result of AhR activation in the presence of UVB light (CYP1A1; HaCaT, UVB light): inhibited induction of CYP1A1 | induction of an AhR-inducible gene, in particular CYP1A1, by the compound itself (CYP1A1; [9]): does not itself bring about induction | translocation of AhR from the cytoplasm into the cell nucleus induced by the compound itself (AhR [3]; [9]): do not induce translocation of AhR
Structure (SMILES): C/C=C/c1cc(OC)c2c(c1)C(C)C(c1ccc(O)c(OC)c1)O2 (stereo not drawn) [Compound (X)]

Structure (SMILES): O=Cc1c2[nH]c3ccccc3c2cc2[nH]c3ccccc3c12 [FICZ, formylindolo(3,2b)carbazole]
melanin content versus untreated cells ([1]; 2 days with UVB-irradiated 50 mM tryptophan solution containing FICZ, p<0.05 (FIG. 3)): significantly more melanin | AhR translocation into the cell nucleus (AhR [2]): stimulated AhR translocation

Structure (SMILES): O=C1c2ccccc2-c2n[nH]c3cccc1c23 [anthra[1,9-cd]pyrazol-6(2H)-one]
action of the AhR agonist TCDD (AhR [6]): capable of inhibiting the action

Structure (SMILES): O=c1cc(-c2ccc(O)c(O)c2)oc2cc(O)cc(O)c12 [luteolin]
action of AhR (AhR [7]): acts as an AhR inhibitor | action of AhR (AhR [8]): has no effect

Structure (SMILES): O=c1c(O)c(-c2ccc(O)c(O)c2)oc2cc(O)cc(O)c12 [quercetin]
action of AhR (AhR [7]): has no effect | action of AhR (AhR [8]): prevents the action of AhR
